# Target: Carbonic anhydrase 1 (Homo sapiens, UniProt P00915)
# Test: Inhibition of recombinant human carbonic anhydrase 1 assessed as reduction in CO2 hydration pretreated for 15 mins followed by CO2 addition measured for 10 to 100 sec by Line-Weaver Burk plot analysis
# Carbonic anhydrase 1, sequence (P00915 whole entry): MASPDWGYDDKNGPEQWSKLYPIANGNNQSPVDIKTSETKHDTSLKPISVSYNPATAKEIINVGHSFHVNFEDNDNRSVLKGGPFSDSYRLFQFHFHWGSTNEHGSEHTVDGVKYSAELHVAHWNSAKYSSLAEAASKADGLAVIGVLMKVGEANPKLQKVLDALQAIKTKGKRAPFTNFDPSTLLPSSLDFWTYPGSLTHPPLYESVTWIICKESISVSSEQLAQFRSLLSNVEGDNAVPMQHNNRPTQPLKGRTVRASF
row,Ki [nM],Structure (SMILES)
1,> 10000,CC(=O)NS(=O)(=O)c1ccc(C2=NN(C(C)=O)C(c3ccc(C(F)(F)F)cc3)O2)cc1 (centres undefined)
2,> 10000,CC(=O)NS(=O)(=O)c1ccc(C2=NN(C(C)=O)C(c3ccccc3[N+](=O)[O-])O2)cc1 (centres undefined)
3,> 10000,COc1ccc(C2OC(c3ccc(S(=O)(=O)NC(C)=O)cc3)=NN2C(C)=O)cc1 (centres undefined)
4,> 10000,CC(=O)NS(=O)(=O)c1ccc(C2=NN(C(C)=O)C(c3cccc([N+](=O)[O-])c3)O2)cc1 (centres undefined)

# Target: Carbonic anhydrase 9 (Homo sapiens, UniProt Q16790)
# Test: Inhibition of recombinant human carbonic anhydrase 9 assessed as reduction in CO2 hydration pretreated for 15 mins followed by CO2 addition measured for 10 to 100 sec by Line-Weaver Burk plot analysis
row,Ki [nM],Structure (SMILES)
1,43.6,CC(=O)NS(=O)(=O)c1ccc(C2=NN(C(C)=O)C(c3ccc(F)cc3)O2)cc1 (centres undefined)
2,468,CC(=O)NS(=O)(=O)c1ccc(C2=NN(C(C)=O)C(c3ccc(C(F)(F)F)cc3)O2)cc1 (centres undefined)
3,502,CC(=O)NS(=O)(=O)c1ccc(C2=NN(C(C)=O)C(c3ccc(Cl)cc3)O2)cc1 (centres undefined)
4,25,CC(=O)NS(=O)(=O)c1ccc(C2=NN(C(C)=O)C(c3ccc(Cl)cc3Cl)O2)cc1 (racemic)
5,26.9,"CC(=O)NS(=O)(=O)c1ccc(C2=NN(C(C)=O)C(c3ccc(Cl)cc3Cl)O2)cc1 (single isomer, unassigned; (+))"
6,430,COc1cccc(C2OC(c3ccc(S(=O)(=O)NC(C)=O)cc3)=NN2C(C)=O)c1 (centres undefined)
7,33.1,CC(=O)NS(=O)(=O)c1ccc(C2=NN(C(C)=O)C(c3ccc([N+](=O)[O-])cc3)O2)cc1 (centres undefined)
8,489,CC(=O)NS(=O)(=O)c1ccc(C2=NN(C(C)=O)C(c3ccccc3C)O2)cc1 (centres undefined)
9,24.2,"CC(=O)NS(=O)(=O)c1ccc(C2=NN(C(C)=O)C(c3ccc(Cl)cc3Cl)O2)cc1 (single isomer, unassigned; (-))"
10,502,CC(=O)NS(=O)(=O)c1ccc(C2=NN(C(C)=O)C(c3ccc(C)cc3)O2)cc1 (centres undefined)
11,159,CC(=O)NS(=O)(=O)c1ccc(C2=NN(C(C)=O)C(c3ccccc3[N+](=O)[O-])O2)cc1 (centres undefined)
12,143,COc1ccc(C2OC(c3ccc(S(=O)(=O)NC(C)=O)cc3)=NN2C(C)=O)cc1 (centres undefined)
13,373,CC(=O)NS(=O)(=O)c1ccc(C2=NN(C(C)=O)C(c3ccc(F)cc3F)O2)cc1 (centres undefined)
14,44.3,CC(=O)NS(=O)(=O)c1ccc(C2=NN(C(C)=O)C(c3cccc([N+](=O)[O-])c3)O2)cc1 (centres undefined)
15,378,COc1ccccc1C1OC(c2ccc(S(=O)(=O)NC(C)=O)cc2)=NN1C(C)=O (centres undefined)

# Reference: ChEMBL document CHEMBL4118091, “N-Acylbenzenesulfonamide Dihydro-1,3,4-oxadiazole Hybrids: Seeking Selectivity toward Carbonic Anhydrase Isoforms” (ACS Med Chem Lett, 2017)
